Data: ChEMBL document CHEMBL1201862, “PubChem BioAssay data set” (2004)
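Step 1: Grow cells in 96-well plates. Step 2: Expose to compound for 48 hours at 5 concentrations. Step 3: Interpolate endpoints linearly; if unreached, use highest concentration. The concentration for 50% growth inhibition is given as GI50.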 Calls of active or inactive are those of the source. Cut-off read from the data, not from the text of the source: active = GI50 up to about 1.1 µM and inactive = higher.

Columns and labels:
Experiment in all cases: growth of human tumour cells (NCI), 48 h
[1] = test system: ACHN
[2] = test system: SF-295
[3] = test system: SR
[4] = test system: PC-3
[5] = test system: M14
[6] = test system: HCT-15
[7] = test system: SNB-19
[8] = test system: UACC-62
[9] = test system: MDA-MB-435
[10] = test system: T47D
[11] = test system: SNB-75
[12] = test system: SK-MEL-28
[13] = test system: SW-620
[14] = test system: MOLT-4
[15] = test system: HCC 2998
[16] = test system: BT-549
[17] = test system: 786-0
[18] = test system: U-251
[19] = test system: SN12C
[20] = test system: A498
[21] = test system: RPMI-8226
[22] = test system: UO-31
[23] = test system: SK-MEL-2
[24] = test system: HOP-92
[25] = test system: MCF7
[26] = test system: MDA-N
[27] = test system: TK-10
[28] = test system: CAKI-1
[29] = test system: OVCAR-4
[30] = test system: HCT-116
[31] = test system: OVCAR-8
[32] = test system: SF-539
[33] = test system: Malme-3M
[34] = test system: DU-145
[35] = test system: OVCAR-3
[36] = test system: MDA-MB-231
[37] = test system: RXF 393
[38] = test system: NCI/ADR-RES
[39] = test system: NCI-H460
[40] = test system: HOP-62
[41] = test system: IGROV-1
[42] = test system: KM12
[43] = test system: SK-OV-3
[44] = test system: LOX IMVI
[45] = test system: COLO 205
[46] = test system: NCI-H522
[47] = test system: K562
[48] = test system: UACC-257
[49] = test system: Hs-578T
[50] = test system: SF-268
[51] = test system: CCRF-CEM
[52] = test system: OVCAR-5
[53] = test system: HT-29
[54] = test system: HL-60
[55] = test system: NCI-H23
[56] = test system: SK-MEL-5
[57] = test system: EKVX
[58] = test system: NCI-H226
[59] = test system: A549

In the case of `Cc1ccnc2sc3ccccc3c(=O)c12`, the GI50 [1] is reported as 35.1 µM (inactive), the GI50 [2] is reported as 50.1 µM (inactive) and the GI50 [3] is reported as 54.8 µM (inactive). For the same compound, the GI50 [4] was 35.6 µM (inactive), the GI50 [5] was 44.9 µM (inactive) and the GI50 [6] was 52.2 µM. The GI50 [7] was 49.8 µM (inactive), the GI50 [8] was 17.6 µM (inactive) and the GI50 [9] was 52.6 µM (inactive). For the same compound, the GI50 [10] was 55.3 µM (inactive), the GI50 [11] was 22.4 µM (inactive) and the GI50 [12] was 48.9 µM (inactive). The GI50 [13] was 44.3 µM (inactive), the GI50 [14] was 26 µM (inactive) and the GI50 [15] was 42.3 µM (inactive). For the same compound, the GI50 [16] was 25.9 µM (inactive), the GI50 [17] was 65 µM (inactive) and the GI50 [18] was 56.8 µM (inactive). For the same compound, the GI50 [19] was 40.4 µM (inactive), the GI50 [20] was 29.8 µM (inactive) and the GI50 [21] was 36.7 µM (inactive). The GI50 [22] was 25.4 µM (inactive), the GI50 [23] was 81.1 µM (inactive) and the GI50 [24] was 54 µM (inactive). The GI50 [25] was 38.4 µM (inactive), the GI50 [26] was 39.4 µM (inactive) and the GI50 [27] was 23.8 µM (inactive). The GI50 [28] was 23.6 µM (inactive), the GI50 [29] was > 100 µM (inactive) and the GI50 [30] was 32 µM (inactive). For the same compound, the GI50 [31] was 43.1 µM (inactive), the GI50 [32] was 33.4 µM (inactive) and the GI50 [33] was 51.9 µM (inactive). For the same compound, the GI50 [34] was 84.3 µM (inactive), the GI50 [35] was 91.6 µM (inactive) and the GI50 [36] was 29.3 µM (inactive). For the same compound, the GI50 [37] was 23.9 µM (inactive), the GI50 [38] was 48.5 µM (inactive) and the GI50 [39] was 24 µM (inactive). For the same compound, the GI50 [40] was 98.4 µM (inactive), the GI50 [41] was 30.7 µM (inactive) and the GI50 [42] was 53.7 µM (inactive). The GI50 [43] was 37.3 µM (inactive), the GI50 [44] was 29.5 µM (inactive) and the GI50 [45] was 45.7 µM (inactive). For the same compound, the GI50 [46] was 34.7 µM (inactive), the GI50 [47] was 42.8 µM (inactive) and the GI50 [48] was 55.2 µM (inactive). For the same compound, the GI50 [49] was 27.3 µM (inactive), the GI50 [50] was 32.7 µM (inactive) and the GI50 [51] was 40.9 µM (inactive). For the same compound, the GI50 [52] was 48.5 µM (inactive), the GI50 [53] was 30.3 µM (inactive) and the GI50 [54] was 30 µM (inactive). For the same compound, the GI50 [55] was 59 µM (inactive), the GI50 [56] was 24.7 µM (inactive) and the GI50 [57] was 18 µM (inactive). For the same compound, the GI50 [58] was 36.1 µM (inactive).

`CC(C)=CCC/C(=C/CC/C(=C\CCc1ccoc1)C(=O)O)C(=O)O` was tested, and the GI50 [1] was > 100 µM (inactive), the GI50 [2] was > 100 µM (inactive) and the GI50 [3] was > 10 µM (inactive). The GI50 [4] was > 100 µM (inactive), the GI50 [5] was > 100 µM (inactive) and the GI50 [6] was over 100 µM. The GI50 [7] was > 100 µM (inactive), the GI50 [8] was > 100 µM (inactive) and the GI50 [9] was > 100 µM (inactive). For the same compound, the GI50 [10] was > 100 µM (inactive), the GI50 [59] was > 100 µM (inactive) and the GI50 [11] was > 100 µM (inactive). The GI50 [12] was > 100 µM (inactive), the GI50 [13] was > 100 µM (inactive) and the GI50 [14] was > 100 µM (inactive). The GI50 [15] was > 100 µM (inactive), the GI50 [16] was > 100 µM (inactive) and the GI50 [17] was > 100 µM (inactive). The GI50 [18] was > 100 µM (inactive), the GI50 [19] was > 100 µM (inactive) and the GI50 [20] was > 100 µM (inactive). For the same compound, the GI50 [21] was > 100 µM (inactive), the GI50 [22] was > 100 µM (inactive) and the GI50 [23] was > 100 µM (inactive). The GI50 [24] was > 100 µM (inactive), the GI50 [25] was > 100 µM (inactive) and the GI50 [26] was > 100 µM (inactive). For the same compound, the GI50 [27] was > 100 µM (inactive), the GI50 [28] was > 100 µM (inactive) and the GI50 [29] was > 100 µM (inactive). The GI50 [30] was > 100 µM (inactive), the GI50 [31] was > 100 µM (inactive) and the GI50 [32] was > 100 µM (inactive). For the same compound, the GI50 [33] was > 100 µM (inactive), the GI50 [34] was > 100 µM (inactive) and the GI50 [35] was > 100 µM (inactive). The GI50 [36] was > 100 µM (inactive), the GI50 [37] was > 100 µM (inactive) and the GI50 [38] was > 100 µM (inactive). For the same compound, the GI50 [40] was > 100 µM (inactive), the GI50 [41] was > 100 µM (inactive) and the GI50 [42] was > 100 µM (inactive). For the same compound, the GI50 [43] was > 100 µM (inactive), the GI50 [44] was > 100 µM (inactive) and the GI50 [45] was > 100 µM (inactive). The GI50 [46] was > 100 µM (inactive), the GI50 [47] was > 100 µM (inactive) and the GI50 [48] was > 100 µM (inactive). For the same compound, the GI50 [49] was > 100 µM (inactive), the GI50 [50] was > 100 µM (inactive) and the GI50 [51] was > 100 µM (inactive). The GI50 [52] was > 100 µM (inactive), the GI50 [53] was > 100 µM (inactive) and the GI50 [54] was > 100 µM (inactive). The GI50 [55] was > 100 µM (inactive), the GI50 [56] was > 100 µM (inactive) and the GI50 [57] was > 100 µM (inactive). The GI50 [58] was > 100 µM (inactive).
